According to patent US20020137929A1, “1 - (3-heterocyclylphenyl) isothiourea, -isourea, -guanidine and -amidine herbicidal agents” (Intellectual Property Department, BASF Aktiengesellschaft, priority 1998, published 2002):

Columns and labels:
[1] = tested on: ABUTH (Velvetleaf); test: Preemergence herbicidal evaluation; type: in vivo, Abutilon theophrasti; conditions: preemergence, rated 4-5 weeks after treatment, 0-9 scale
In short: (§1)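 Sown cups got a single aqueous acetone spray of test compound (roughly 0.0156–0.500 kg/ha) before seedlings emerged. Evaluation, 4–5 weeks on, used a 0–9 visual scale covering plant stand, vigor, size, malformation, chlorosis and general appearance compared with controls.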

[2] = tested on: AMBEL (Ragweed, Common); test: Postemergence herbicidal evaluation; type: in vivo, Ambrosia artemisifolia; conditions: postemergence
In short: (§2)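 Rate range approx. 0.0156–0.500 kg/ha. Foliar application at 40 psi to ~2-week seedlings; surfactant 0.5% TWEEN 20 in 50/50 acetone/water. Evaluation 4–5 wk post-treatment by 0–9 visual injury score, means of replicate tests.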

[3] = tested on: GLXMAW (Soybean, Williams); test: Postemergence herbicidal evaluation; type: in vivo, Glycine max, (L.) Merr. cv Williams; conditions: postemergence
In short: as §2

[4] = tested on: CYPIR (Rice Flatsedge); test: Postemergence weed control under flooded paddy conditions; type: in vivo, Cyperus iria; conditions: postemergence weeds, rated 3 to 4 weeks after treatment
In short: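 Herbicidal effect is judged by eye on a 0–9 scale versus control, 3–4 weeks after dosing. Dosing is into flood water kept 1.5–3 cm over the soil, at about 0.0313–0.500 kg/ha in aqueous/acetone 50/50 v/v, on 3–5 cm weeds and 1.5–2.5-leaf rice seedlings.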

[5] = tested on: SETVI (Foxtail, Green); test: Postemergence herbicidal evaluation; type: in vivo, Setaria viridis; conditions: postemergence
In short: as §2

[6] = tested on: ECHCG (Barnyardgrass); test: Postemergence herbicidal evaluation; type: in vivo, Echinochloa crus-galli; conditions: postemergence
In short: as §2

[7] = tested on: CASOB (Sicklepod); test: Preemergence herbicidal evaluation; type: in vivo, Cassia obtusifolia; conditions: preemergence, rated 4-5 weeks after treatment, 0-9 scale
In short: as §1

[8] = tested on: ORYSAT (Rice, Tebonnet); test: Postemergence herbicidal evaluation; type: in vivo, Oryza sativa, (L.) Tebonnet; conditions: postemergence
In short: as §2

[9] = tested on: TRZAWR (Wheat, Winter, cv Riband); test: Postemergence herbicidal evaluation; type: in vivo, Triticum aestivum; conditions: postemergence
In short: as §2

[10] = tested on: MOOVA (Monochoria); test: Preemergence weed control under flooded paddy conditions; type: in vivo, Monochoria vaginalis; conditions: rated 3-4 weeks after treatment
In short: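 Using flooded silt loam (water 1.5 to 3 cm deep), seeds sown in the top 0.5 cm were exposed preemergence to compound pipetted into the flood at about 0.0313 to 0.500 kg/ha. Effects were scored 0-9 by eye three to four weeks later.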

[11] = tested on: SETVI (Foxtail, Green); test: Preemergence herbicidal evaluation; type: in vivo, Setaria viridis; conditions: preemergence, rated 4-5 weeks after treatment, 0-9 scale
In short: as §1

[12] = tested on: ABUTH (Velvetleaf); test: Postemergence herbicidal evaluation; type: in vivo, Abutilon theophrasti; conditions: postemergence
In short: as §2

With CCOC(=O)CN1C(=O)C(CC(=O)NO)S/C1=N/c1cc(-n2c(=O)cc(C(F)(F)F)n(C)c2=O)c(F)cc1Cl (stereo not drawn) [Compound 98, Ethyl 2-{{2-chloro-5-[3,6-dihydro-3-methyl-2,6-dioxo-4-(trifluoromethyl)-1(2H)-pyrimidinyl]-4-fluorophenyl}imino}-5-[(hydroxycarbamoyl)methyl]-4-oxo-3-thiazolidineacetate] the ABUTH rating ([1]; 0.0156 kg/ha) was 0.0, the ABUTH rating ([1]; 0.0313 kg/ha) was 0.0 and the ABUTH rating ([1]; 0.0625 kg/ha) was 2.0. The ABUTH rating ([1]; 0.1250 kg/ha) was 6.0, the ABUTH rating ([1]; 0.2500 kg/ha) was 6.0 and the ABUTH rating ([1]; 0.5000 kg/ha) was 9.0. For the same molecule, the AMBEL herbicidal rating ([2]; rate 0.0156 kg/ha) was 3.0, the AMBEL herbicidal rating ([2]; rate 0.0313 kg/ha) was 3.0 and the AMBEL herbicidal rating ([2]; rate 0.0625 kg/ha) was 4.0. The AMBEL herbicidal rating ([2]; rate 0.1250 kg/ha) was 9.0, the GLXMAW herbicidal rating ([3]; rate 0.0156 kg/ha) was 4.5 and the GLXMAW herbicidal rating ([3]; rate 0.0313 kg/ha) was 4.5. The GLXMAW herbicidal rating ([3]; rate 0.0625 kg/ha) was 5.5, the GLXMAW herbicidal rating ([3]; rate 0.1250 kg/ha) was 5.5 and the “Herbicidal rating CYPIR” value ([4]; Rate 0.0313 kg/ha) was 9.0. For the same molecule, the “Herbicidal rating CYPIR” value ([4]; Rate 0.0625 kg/ha) was 9.0, the “Herbicidal rating CYPIR” value ([4]; Rate 0.1250 kg/ha) was 9.0 and the “Herbicidal rating CYPIR” value ([4]; Rate 0.2500 kg/ha) was 9.0. It also gave an SETVI herbicidal rating ([5]; rate 0.0156 kg/ha) of 1.0, an SETVI herbicidal rating ([5]; rate 0.0313 kg/ha) of 0.0 and an SETVI herbicidal rating ([5]; rate 0.0625 kg/ha) of 1.0. It also gave an SETVI herbicidal rating ([5]; rate 0.1250 kg/ha) of 2.0, an ECHCG herbicidal rating ([6]; rate 0.0156 kg/ha) of 0.0 and an ECHCG herbicidal rating ([6]; rate 0.0313 kg/ha) of 0.0. The ECHCG herbicidal rating ([6]; rate 0.0625 kg/ha) was 1.0, the ECHCG herbicidal rating ([6]; rate 0.1250 kg/ha) was 1.0 and the CASOB rating ([7]; 0.0156 kg/ha) was 0.0. The CASOB rating ([7]; 0.0313 kg/ha) was 0.0, the CASOB rating ([7]; 0.0625 kg/ha) was 0.0 and the CASOB rating ([7]; 0.1250 kg/ha) was 1.0. It also gave a CASOB rating ([7]; 0.2500 kg/ha) of 2.0, a CASOB rating ([7]; 0.5000 kg/ha) of 7.0 and an ORYSAT herbicidal rating ([8]; rate 0.0156 kg/ha) of 1.5. For the same molecule, the ORYSAT herbicidal rating ([8]; rate 0.0313 kg/ha) was 2.5, the ORYSAT herbicidal rating ([8]; rate 0.0625 kg/ha) was 2.5 and the ORYSAT herbicidal rating ([8]; rate 0.1250 kg/ha) was 2.0. It also gave a TRZAWR herbicidal rating ([9]; rate 0.0156 kg/ha) of 2.5, a TRZAWR herbicidal rating ([9]; rate 0.0313 kg/ha) of 2.5 and a TRZAWR herbicidal rating ([9]; rate 0.0625 kg/ha) of 3.0. For the same molecule, the TRZAWR herbicidal rating ([9]; rate 0.1250 kg/ha) was 3.0, the “MOOVA herbicidal effect rating” value ([10]; 0.0313 kg/ha) was 9.0 and the “MOOVA herbicidal effect rating” value ([10]; 0.0625 kg/ha) was 9.0. For the same molecule, the “MOOVA herbicidal effect rating” value ([10]; 0.1250 kg/ha) was 9.0, the “MOOVA herbicidal effect rating” value ([10]; 0.2500 kg/ha) was 9.0 and the SETVI rating ([11]; 0.0156 kg/ha) was 0.0. For the same molecule, the SETVI rating ([11]; 0.0313 kg/ha) was 1.0, the SETVI rating ([11]; 0.0625 kg/ha) was 0.0 and the SETVI rating ([11]; 0.1250 kg/ha) was 4.0. For the same molecule, the SETVI rating ([11]; 0.2500 kg/ha) was 3.0, the SETVI rating ([11]; 0.5000 kg/ha) was 7.0 and the ABUTH herbicidal rating ([12]; rate 0.0156 kg/ha) was 2.0. For the same molecule, the ABUTH herbicidal rating ([12]; rate 0.0313 kg/ha) was 7.0, the ABUTH herbicidal rating ([12]; rate 0.0625 kg/ha) was 9.0 and the ABUTH herbicidal rating ([12]; rate 0.1250 kg/ha) was 9.0.
